According to patent US20240327852A1, “METHODS OF TRANSFORMATION” (SYNGENTA CROP PROTECTION AG, priority 2019, published 2024):

Key:
Format in all cases: in vivo
[1] = test system: soybean (Glycine max) explants; assay: Comparison of greenhouse selection effectiveness between BSU and Ecomazayr for ALS selectable marker
Procedure: (§1) The explants were transplanted to soil for further selection and development of transgenic shoots after immersed in Soy2 medium for 2 day and in Soy2 medium with 2 μM bensulfuron-methyl for 5 days. The selection is performed for three weeks in GH by application with various concentrations of bensulfuron-methyl using mounted cotton ball or daily liquid spay methods. The recovered shoots from each treatment were subjected for Taqman assay to confirm the transgenic frequency. The application solution contains bensulfuron-methyl, 1 g/L MES and BAP (2 mg./L for first week, and 1 mg/L for second and third weeks, or 2 mg/L or 1 mg/l for three weeks). Alternatively, the transplanted explants in soil can be directly spayed with selection solution containing commercial herbicide Ecomazayr (1-8 μM isopropylamine salt of imazapyr), 1-2 mg/L BAP and 1 g/L MES for 3 weeks.
An experiment was conducted to compare the selection effectiveness in greenhouse between BSU and commercial herbicide Ecomazayr for ALS selectable marker using current transformation method.

[2] = test system: soybean (Glycine max) explants; assay: Semi-in-planta soybean transformation, greenhouse glyphosate selection for EPSPS marker, Taqman assay of recovered shoots; conditions: 3 weeks greenhouse selection, 48 explants
Procedure: (§2) Sterilized mature soybean (Glycine max) seeds were used. Prior to Agrobacterium inoculation, seeds were soaked in sterilized H2O or liquid medium Soy1 for overnight (12-18 hours) at 22-24° C. Liquid medium Soy 1 contains 3.1 g/L Gamborg's B5 basal medium and 2 mg/L BAP
(§3) The seed coat was removed from the soaked seed. One of the cotyledons and both primary leaves were carefully removed and discarded. Next, the region containing the epicotyl, apical meristem and the cotyledonary node were wounded by making several cuts with the sharp end of scalpel blade.
(§4) Agrobacterium tumefaciens strain [Chry5d3 recA−] was used. The Agrobacterium harbored a binary vector containing a selectable marker and gene of interest, specifically construct 23093 containing EPSPS selectable marker driven by translation elongation factor EF-1 alpha/Tu promoter and AmCyan gene driven by Cestrum Yellow leaf curl virus promoter (prCMP), construct18891 containing codon-optimized Acetolactate synthase (ALS) double mutant (P191A, W568L) from Nicotiana tabacum for soybean and AmCyan gene driven by prCMP, and construct 22296 containing codon-optimized Acetolactate synthase (ALS) double mutant (P191A, W568L) from Nicotiana tabacum for soybean driven by translation elongation factor EF-1 alpha/Tu promoter, including the first intron and neighboring 5′-UTR, from soybean (Williams 82) prGmEF-02. Agrobacterium culture was streaked from −80° C. from glycerol stock onto YP plates containing 100 mg/L ampicillin and 500 mg/L spectinomycin appropriate antibiotics and grown in a 23° C. incubator. Before inoculation with explants, Agrobacterium cells were collected from the plate and were uniformly suspended in liquid infection medium SoyInf in a sterile disposable 50 ml centrifuge tube and diluted to OD A660 of approximately 0.3 to 0.6. A final concentration of 40-80 mg/L (200-400 uM) acetosyringone was added to induce virulence gene expression. Dithiothreitol (DTT) was added to a final concentration of 150 μg/ml. SoyInf contains 1.1 g/L MS basal salt mixture, 20 g/L sucrose, 10 g/L glucose, 4 g/L MES, 1 ml/L Gamborg's B5 vitamins (1000×) and 2 mg/L zeatin riboside.
(§5) The wounded explants were immediately infected with Agrobacterium by immersing them with the Agrobacterium suspension, and then incubated for 18 hours in dark at room temperature. After infection, the explants were removed from the Agrobacterium suspension and transferred to petri dishes for co-cultivation in an airtight plastic container. The co-cultivation plates were incubated for 3-5 days at 22±1° C. in the dark, with explants placed adaxial side up.
After 2 day in Soy2 medium and 5 days in Soy2 medium with 100 μM glyphosate, the explants were transplanted to soil for further selection and development of transgenic shoots. The selection is performed for three weeks in GH by application with various concentrations of glyphosate using mounted cotton ball or daily liquid spay methods. The recovered shoots from each treatment were subjected for Taqman assay to confirm the transgenic frequency. The application solution contains glyphosate, 1 g/L MES and BAP (2 mg./L for first week, and 1 mg/L for second and third weeks, or 2 mg/L or 1 mg/l for three weeks).
To obtain an optimal selection conditions and methods for EPSPS selection, a side-by-side comparison experiment was conducted. Transgenic events can be recovered without selection in Greenhouse at 18% transformation frequency with more than 80% escape rate. […] Similar results can also be achieved by daily spay of 150 μM or more of glyphosate with few escapes.

[3] = test system: soybean (Glycine max) explants; assay: Semi-in-planta soybean transformation, greenhouse bensulfuron-methyl selection for ALS marker, Taqman assay of recovered shoots; conditions: for Escape rate / Number of events / TF: 3 weeks greenhouse selection
Procedure: as §2, §3, §4, §5, §1
To obtain an optimal selection conditions and methods for ALS selection, a side-by-side comparison experiment was conducted. Transgenic events can be recovered without selection in Greenhouse at more than 18% transformation frequency with 73% escape rate. […] By using cotton ball method for application of bensulfuron-methyl, high transformation frequency (˜40%) with high single copy event rate (50%) was obtained. […]

[4] = greenhouse selection 1 μM imazapyr, 56 explants
[5] = greenhouse selection 2 μM imazapyr, 56 explants
[6] = greenhouse selection 3 μM imazapyr, 56 explants
[7] = greenhouse selection 4 μM imazapyr, 56 explants
[8] = greenhouse selection 5 μM imazapyr, 56 explants
[9] = greenhouse selection 6 μM imazapyr, 56 explants
[10] = greenhouse selection 7 μM imazapyr, 52 explants
[11] = greenhouse selection 8 μM imazapyr, 54 explants
[12] = cotton ball, 3 μM bensulfuron-methyl, 40 explants
[13] = cotton ball, 6 μM bensulfuron-methyl, 48 explants
[14] = cotton ball, 9 μM bensulfuron-methyl, 48 explants
[15] = daily spray, 3 μM bensulfuron-methyl, 48 explants
[16] = daily spray, 4 μM bensulfuron-methyl, 48 explants
[17] = daily spray, 5 μM bensulfuron-methyl, 48 explants
[18] = daily spray, 6 μM bensulfuron-methyl, 48 explants
[19] = daily spray, 7 μM bensulfuron-methyl, 48 explants
[20] = daily spray, 8 μM bensulfuron-methyl, 48 explants
[21] = daily spray, 9 μM bensulfuron-methyl, 48 explants
[22] = daily spray, 10 μM bensulfuron-methyl, 48 explants
[23] = greenhouse selection 3 μM BSU, 56 explants

CC(C)C1(C)N=C(c2ncccc2C(=O)O)NC1=O (stereo not shown) [imazapyr]
selection effectiveness in greenhouse ([1]; ALS selectable marker, recovery of ALS transgenic plants): as effective as BSU | Number of escapes [1, 4]: 1 | Number of events [1, 4]: 15 | Transformation frequency (%) [1, 4]: 26.8% | Number of escapes [1, 5]: 0 | Number of events [1, 5]: 12 | Transformation frequency (%) [1, 5]: 21.4% | Number of escapes [1, 6]: 0 | Number of events [1, 6]: 20 | Transformation frequency (%) [1, 6]: 35.7% | Number of escapes [1, 7]: 0 | Number of events [1, 7]: 14 | Transformation frequency (%) [1, 7]: 25.0% | Number of escapes [1, 8]: 0 | Number of events [1, 8]: 8 | Transformation frequency (%) [1, 8]: 14.3% | Number of escapes [1, 9]: 0 | Number of events [1, 9]: 10 | Transformation frequency (%) [1, 9]: 17.9% | Number of escapes [1, 10]: 0 | Number of events [1, 10]: 10 | Transformation frequency (%) [1, 10]: 19.2% | Number of escapes [1, 11]: 0 | Number of events [1, 11]: 10 | Transformation frequency (%) [1, 11]: 18.5%

O=C(O)CNCP(=O)(O)O [glyphosate]
Escape rate ([2]; cotton ball, 100 μM glyphosate): 2.1% | Number of events ([2]; cotton ball, 100 μM glyphosate): 16 | Transformation Frequency ([2]; cotton ball, 100 μM glyphosate): 33.3% | Escape rate ([2]; cotton ball, 125 μM glyphosate): 0.0% | Number of events ([2]; cotton ball, 125 μM glyphosate): 25 | Transformation Frequency ([2]; cotton ball, 125 μM glyphosate): 52.1% | Escape rate ([2]; cotton ball, 150 μM glyphosate): 0.0% | Number of events ([2]; cotton ball, 150 μM glyphosate): 24 | Transformation Frequency ([2]; cotton ball, 150 μM glyphosate): 50.0% | Number of events ([2]; cotton ball, 175 μM glyphosate): 23 | Transformation Frequency ([2]; cotton ball, 175 μM glyphosate): 47.9% | Escape rate ([2]; daily spray, 100 μM glyphosate): 2.1% | Number of events ([2]; daily spray, 100 μM glyphosate): 11 | Transformation Frequency ([2]; daily spray, 100 μM glyphosate): 22.9% | Escape rate ([2]; daily spray, 125 μM glyphosate): 6.3% | Number of events ([2]; daily spray, 125 μM glyphosate): 13 | Transformation Frequency ([2]; daily spray, 125 μM glyphosate): 27.1% | Escape rate ([2]; daily spray, 150 μM glyphosate): 2.1% | Number of events ([2]; daily spray, 150 μM glyphosate): 20 | Transformation Frequency ([2]; daily spray, 150 μM glyphosate): 41.7% | Escape rate ([2]; daily spray, 175 μM glyphosate): 6.3% | Number of events ([2]; daily spray, 175 μM glyphosate): 22 | Transformation Frequency ([2]; daily spray, 175 μM glyphosate): 45.8% | Escape rate ([2]; daily spray, 200 μM glyphosate): 6.3% | Number of events ([2]; daily spray, 200 μM glyphosate): 20 | Transformation Frequency ([2]; daily spray, 200 μM glyphosate): 41.7% | Escape rate ([2]; daily spray, 250 μM glyphosate): 4.2% | Number of events ([2]; daily spray, 250 μM glyphosate): 15 | Transformation Frequency ([2]; daily spray, 250 μM glyphosate): 31.3% | Escape rate ([2]; daily spray, 300 μM glyphosate): 2.1% | Number of events ([2]; daily spray, 300 μM glyphosate): 23 | Transformation Frequency ([2]; daily spray, 300 μM glyphosate): 47.9%

COC(=O)c1ccccc1CS(=O)(=O)NC(=O)Nc1nc(OC)cc(OC)n1 [bensulfuron-methyl]
escape events recovered ([3]; 3 μM or higher concentrations of bensulfuron-methyl): No escape event | Escape rate [3, 12]: 0.0% | Number of events [3, 12]: 16 | TF [3, 12]: 40.0% | Escape rate [3, 13]: 0.0% | Number of events [3, 13]: 13 | TF [3, 13]: 27.1% | Escape rate [3, 14]: 0.0% | Number of events [3, 14]: 9 | TF [3, 14]: 18.8% | Escape rate [3, 15]: 0.0% | Number of events [3, 15]: 18 | TF [3, 15]: 37.5% | Escape rate [3, 16]: 0.0% | Number of events [3, 16]: 10 | TF [3, 16]: 20.8% | Escape rate [3, 17]: 0.0% | Number of events [3, 17]: 10 | TF [3, 17]: 20.8% | Escape rate [3, 18]: 0.0% | Number of events [3, 18]: 10 | TF [3, 18]: 20.8% | Escape rate [3, 19]: 0.0% | Number of events [3, 19]: 6 | TF [3, 19]: 12.5% | Escape rate [3, 20]: 0.0% | Number of events [3, 20]: 11 | TF [3, 20]: 22.9% | Escape rate [3, 21]: 0.0% | Number of events [3, 21]: 12 | TF [3, 21]: 25.0% | Escape rate [3, 22]: 0.0% | Number of events [3, 22]: 8 | TF [3, 22]: 16.7% | Number of escapes [1, 23]: 0 | Number of events [1, 23]: 12 | Transformation frequency (%) [1, 23]: 21.4%
